Reference: ChEMBL document CHEMBL3046587, “Baseline sensitivity of Monilinia laxa from Greece to fenhexamid and analysis of fenhexamid-resistant mutants” (Crop Prot, 2013)
Values after ≈ are worked out from the molar mass of the structure shown.

Columns and labels:
Monilinia laxa [1] = assay: Fungitoxicity against moderately fenhexamid resistant Monilinia laxa MF-7 assessed as reduction in mycelial growth measured at 25 degC after 4 days; format: functional, organism-based; conditions: MF-7, 96 h
Monilinia laxa [2] = assay: Fungitoxicity against moderately fenhexamid resistant Monilinia laxa MF-6 assessed as reduction in mycelial growth measured at 25 degC after 4 days; format: functional, organism-based; conditions: MF-6, 96 h
Monilinia laxa [3] = assay: Fungitoxicity against moderately fenhexamid resistant Monilinia laxa MF-4 assessed as reduction in mycelial growth measured at 25 degC after 4 days; format: functional, organism-based; conditions: MF-4, 96 h
Monilinia laxa [4] = assay: Fungitoxicity against highly fenhexamid resistant Monilinia laxa MF-5 assessed as reduction in mycelial growth measured at 25 degC after 4 days; format: functional, organism-based; conditions: MF-5, 96 h
Monilinia laxa [5] = assay: Resistance factor, ratio of EC50 for Monilinia laxa MF-15 to EC50 for wild type Monilinia laxa K2; format: functional
Monilinia laxa [6] = assay: Resistance factor, ratio of EC50 for Monilinia laxa MLP2 to EC50 for wild type Monilinia laxa K2; format: functional
Monilinia laxa [7] = assay: Resistance factor, ratio of EC50 for Monilinia laxa MF-1 to EC50 for wild type Monilinia laxa K2; format: functional
Monilinia laxa [8] = assay: Fungitoxicity against Monilinia laxa MF-3 assessed as diameter of mycelial colony measured at 25 degC after 4 days; format: functional
Monilinia laxa [9] = assay: Resistance factor, ratio of EC50 for Monilinia laxa MF-5 to EC50 for wild type Monilinia laxa K2; format: functional
Monilinia laxa [10] = assay: Fungitoxicity against Monilinia laxa MF-19 assessed as diameter of mycelial colony measured at 25 degC after 4 days; format: functional
Monilinia laxa [11] = assay: Fungitoxicity against Monilinia laxa MF-15 assessed as diameter of mycelial colony measured at 25 degC after 4 days; format: functional
Monilinia laxa [12] = assay: Fungitoxicity against moderately fenhexamid resistant Monilinia laxa MF-1 assessed as reduction in mycelial growth measured at 25 degC after 4 days; format: functional, organism-based; conditions: MF-1, 96 h
Monilinia laxa [13] = assay: Resistance factor, ratio of EC50 for Monilinia laxa MF-8 to EC50 for wild type Monilinia laxa K2; format: functional
Monilinia laxa [14] = assay: Fungitoxicity against Monilinia laxa MLK12 assessed as diameter of mycelial colony measured at 25 degC after 4 days; format: functional
Monilinia laxa [15] = assay: Fungitoxicity against moderately fenhexamid resistant Monilinia laxa MF-8 assessed as reduction in mycelial growth measured at 25 degC after 4 days; format: functional, organism-based; conditions: MF-8, 96 h
Monilinia laxa [16] = assay: Fungitoxicity against Monilinia laxa MLC2 assessed as diameter of mycelial colony measured at 25 degC after 4 days; format: functional
Monilinia laxa [17] = assay: Fungitoxicity against Monilinia laxa MLBO7 assessed as diameter of mycelial colony measured at 25 degC after 4 days; format: functional
Monilinia laxa [18] = assay: Resistance factor, ratio of EC50 for Monilinia laxa MLX2 to EC50 for wild type Monilinia laxa K2; format: functional
Monilinia laxa [19] = assay: Resistance factor, ratio of EC50 for Monilinia laxa MF-7 to EC50 for wild type Monilinia laxa K2; format: functional
Monilinia laxa [20] = assay: Fungitoxicity against Monilinia laxa MF-7 assessed as diameter of mycelial colony measured at 25 degC after 4 days; format: functional
Monilinia laxa [21] = assay: Resistance factor, ratio of EC50 for Monilinia laxa MLBO7 to EC50 for wild type Monilinia laxa K2; format: functional
Monilinia laxa [22] = assay: Resistance factor, ratio of EC50 for Monilinia laxa MF-4 to EC50 for wild type Monilinia laxa K2; format: functional
Monilinia laxa [23] = assay: Fungitoxicity against Monilinia laxa MF-1 assessed as diameter of mycelial colony measured at 25 degC after 4 days; format: functional
Monilinia laxa [24] = assay: Resistance factor, ratio of EC50 for Monilinia laxa MF-2 to EC50 for wild type Monilinia laxa K2; format: functional
Monilinia laxa [25] = assay: Fungitoxicity against Monilinia laxa K2 assessed as diameter of mycelial colony measured at 25 degC after 4 days; format: functional
Monilinia laxa [26] = assay: Fungitoxicity against Monilinia laxa MLX2 assessed as diameter of mycelial colony measured at 25 degC after 4 days; format: functional
Monilinia laxa [27] = assay: Resistance factor, ratio of EC50 for Monilinia laxa MLC2 to EC50 for wild type Monilinia laxa K2; format: functional
Monilinia laxa [28] = assay: Resistance factor, ratio of EC50 for Monilinia laxa MLK12 to EC50 for wild type Monilinia laxa K2; format: functional
Monilinia laxa [29] = assay: Fungitoxicity against Monilinia laxa MF-6 assessed as diameter of mycelial colony measured at 25 degC after 4 days; format: functional
Monilinia laxa [30] = assay: Fungitoxicity against Monilinia laxa MF-2 assessed as diameter of mycelial colony measured at 25 degC after 4 days; format: functional
Monilinia laxa [31] = assay: Fungitoxicity against Monilinia laxa MF-20 assessed as diameter of mycelial colony measured at 25 degC after 4 days; format: functional
Monilinia laxa [32] = assay: Fungitoxicity against Monilinia laxa MLP2 assessed as diameter of mycelial colony measured at 25 degC after 4 days; format: functional
Monilinia laxa [33] = assay: Resistance factor, ratio of EC50 for Monilinia laxa MF-19 to EC50 for wild type Monilinia laxa K2; format: functional
Monilinia laxa [34] = assay: Fungitoxicity against Monilinia laxa MLK6 assessed as diameter of mycelial colony measured at 25 degC after 4 days; format: functional
Monilinia laxa [35] = assay: Fungitoxicity against Monilinia laxa MF-8 assessed as diameter of mycelial colony measured at 25 degC after 4 days; format: functional
Monilinia laxa [36] = assay: Fungitoxicity against highly fenhexamid resistant Monilinia laxa MF-3 assessed as reduction in mycelial growth measured at 25 degC after 4 days; format: functional, organism-based; conditions: MF-3, 96 h
Monilinia laxa [37] = assay: Fungitoxicity against Monilinia laxa MF-5 assessed as diameter of mycelial colony measured at 25 degC after 4 days; format: functional
Monilinia laxa [38] = assay: Resistance factor, ratio of EC50 for Monilinia laxa MF-20 to EC50 for wild type Monilinia laxa K2; format: functional
Monilinia laxa [39] = assay: Fungitoxicity against wild type Monilinia laxa K2 assessed as reduction in mycelial growth measured at 25 degC after 4 days; format: functional, organism-based; conditions: K2, 96 h
Monilinia laxa [40] = assay: Fungitoxicity against moderately fenhexamid resistant Monilinia laxa MF-22 assessed as reduction in mycelial growth measured at 25 degC after 4 days; format: functional, organism-based; conditions: MF-22, 96 h
Monilinia laxa [41] = assay: Fungitoxicity against highly fenhexamid resistant Monilinia laxa MF-2 assessed as reduction in mycelial growth measured at 25 degC after 4 days; format: functional, organism-based; conditions: MF-2, 96 h
Monilinia laxa [42] = assay: Resistance factor, ratio of EC50 for Monilinia laxa MF-6 to EC50 for wild type Monilinia laxa K2; format: functional
Monilinia laxa [43] = assay: Resistance factor, ratio of EC50 for Monilinia laxa MF-22 to EC50 for wild type Monilinia laxa K2; format: functional
Monilinia laxa [44] = assay: Resistance factor, ratio of EC50 for Monilinia laxa MF-3 to EC50 for wild type Monilinia laxa K2; format: functional
Monilinia laxa [45] = assay: Fungitoxicity against Monilinia laxa MF-4 assessed as diameter of mycelial colony measured at 25 degC after 4 days; format: functional
Monilinia laxa [46] = assay: Fungitoxicity against Monilinia laxa MF-22 assessed as diameter of mycelial colony measured at 25 degC after 4 days; format: functional
Monilinia laxa [47] = assay: Resistance factor, ratio of EC50 for Monilinia laxa MLK6 to EC50 for wild type Monilinia laxa K2; format: functional

COC(=O)Nc1nc2ccccc2[nH]1 [CARBENDAZIM]
EC50 (Monilinia laxa [1]): 0.3 µg/mL (≈ 1.57 µM) | EC50 (Monilinia laxa [2]): 0.2 µg/mL (≈ 1.05 µM) | EC50 (Monilinia laxa [3]): 0.2 µg/mL (≈ 1.05 µM) | EC50 (Monilinia laxa [4]): 0.5 µg/mL (≈ 2.62 µM)

CC1(C(=O)Nc2ccc(O)c(Cl)c2Cl)CCCCC1 [FENHEXAMID]
Ratio EC50 (Monilinia laxa [5]): 31 | Ratio EC50 (Monilinia laxa [6]): 0.3 | Ratio EC50 (Monilinia laxa [7]): 23 | Activity (Monilinia laxa [8]): 60 mm | Ratio EC50 (Monilinia laxa [9]): 70 | Activity (Monilinia laxa [10]): 55 mm | Activity (Monilinia laxa [11]): 56 mm | EC50 (Monilinia laxa [12]): 2.2 µg/mL (≈ 7.28 µM) | Ratio EC50 (Monilinia laxa [13]): 58 | Activity (Monilinia laxa [14]): 55 mm | EC50 (Monilinia laxa [15]): 5.8 µg/mL (≈ 19.2 µM) | Activity (Monilinia laxa [16]): 49 mm | Activity (Monilinia laxa [17]): 60 mm | Ratio EC50 (Monilinia laxa [18]): 1.1 | EC50 (Monilinia laxa [1]): 2.3 µg/mL (≈ 7.61 µM) | Ratio EC50 (Monilinia laxa [19]): 22 | Activity (Monilinia laxa [20]): 55 mm | Ratio EC50 (Monilinia laxa [21]): 0.4 | Ratio EC50 (Monilinia laxa [22]): 40 | Activity (Monilinia laxa [23]): 50 mm | Ratio EC50 (Monilinia laxa [24]): 111 | Activity (Monilinia laxa [25]): 57 mm | Activity (Monilinia laxa [26]): 59 mm | Ratio EC50 (Monilinia laxa [27]): 3.7 | Ratio EC50 (Monilinia laxa [28]): 2.2 | Activity (Monilinia laxa [29]): 56 mm | Activity (Monilinia laxa [30]): 54 mm | Activity (Monilinia laxa [31]): 55 mm | Activity (Monilinia laxa [32]): 60 mm | Ratio EC50 (Monilinia laxa [33]): 43 | Activity (Monilinia laxa [34]): 52 mm | Activity (Monilinia laxa [35]): 58 mm | EC50 (Monilinia laxa [36]): 7.4 µg/mL (≈ 24.5 µM) | EC50 (Monilinia laxa [2]): 5.8 µg/mL (≈ 19.2 µM) | Activity (Monilinia laxa [37]): 57 mm | Ratio EC50 (Monilinia laxa [38]): 34 | EC50 (Monilinia laxa [39]): 0.1 µg/mL (≈ 0.331 µM) | EC50 (Monilinia laxa [40]): 3.7 µg/mL (≈ 12.2 µM) | EC50 (Monilinia laxa [41]): 11.1 µg/mL (≈ 36.7 µM) | Ratio EC50 (Monilinia laxa [42]): 58 | EC50 (Monilinia laxa [3]): 4 µg/mL (≈ 13.2 µM) | EC50 (Monilinia laxa [4]): 6.9 µg/mL (≈ 22.8 µM) | Ratio EC50 (Monilinia laxa [43]): 37 | Ratio EC50 (Monilinia laxa [44]): 75 | Activity (Monilinia laxa [45]): 57 mm | Activity (Monilinia laxa [46]): 56 mm | Ratio EC50 (Monilinia laxa [47]): 1.2

CC(Cc1ccc(C(C)(C)C)cc1)CN1C[C@@H](C)O[C@@H](C)C1 (stereo partly specified) [FENPROPIMORPH]
EC50 (Monilinia laxa [12]): 1 µg/mL (≈ 3.3 µM) | EC50 (Monilinia laxa [15]): 0.3 µg/mL (≈ 0.989 µM) | EC50 (Monilinia laxa [1]): 0.1 µg/mL (≈ 0.33 µM) | EC50 (Monilinia laxa [36]): 0.11 µg/mL (≈ 0.362 µM) | EC50 (Monilinia laxa [2]): 1 µg/mL (≈ 3.3 µM) | EC50 (Monilinia laxa [39]): 0.14 µg/mL (≈ 0.461 µM) | EC50 (Monilinia laxa [40]): 0.5 µg/mL (≈ 1.65 µM) | EC50 (Monilinia laxa [41]): 0.18 µg/mL (≈ 0.593 µM) | EC50 (Monilinia laxa [3]): 0.12 µg/mL (≈ 0.395 µM) | EC50 (Monilinia laxa [4]): 0.15 µg/mL (≈ 0.494 µM)

N#Cc1c[nH]cc1-c1cccc2c1OC(F)(F)O2 [FLUDIOXONIL]
EC50 (Monilinia laxa [12]): 0.02 µg/mL (≈ 0.0806 µM) | EC50 (Monilinia laxa [15]): 0.05 µg/mL (≈ 0.201 µM) | EC50 (Monilinia laxa [1]): 0.01 µg/mL (≈ 0.0403 µM) | EC50 (Monilinia laxa [36]): 0.01 µg/mL (≈ 0.0403 µM) | EC50 (Monilinia laxa [2]): 0.02 µg/mL (≈ 0.0806 µM) | EC50 (Monilinia laxa [39]): 0.01 µg/mL (≈ 0.0403 µM) | EC50 (Monilinia laxa [40]): 0.02 µg/mL (≈ 0.0806 µM) | EC50 (Monilinia laxa [41]): 0.03 µg/mL (≈ 0.121 µM) | EC50 (Monilinia laxa [3]): 0.03 µg/mL (≈ 0.121 µM) | EC50 (Monilinia laxa [4]): 0.01 µg/mL (≈ 0.0403 µM)

C[Si](Cn1cncn1)(c1ccc(F)cc1)c1ccc(F)cc1 [FLUSILAZOLE]
EC50 (Monilinia laxa [12]): 0.2 µg/mL (≈ 0.634 µM) | EC50 (Monilinia laxa [15]): 0.2 µg/mL (≈ 0.634 µM) | EC50 (Monilinia laxa [1]): 0.2 µg/mL (≈ 0.634 µM) | EC50 (Monilinia laxa [36]): 0.1 µg/mL (≈ 0.317 µM) | EC50 (Monilinia laxa [2]): 0.3 µg/mL (≈ 0.951 µM) | EC50 (Monilinia laxa [39]): 0.1 µg/mL (≈ 0.317 µM) | EC50 (Monilinia laxa [40]): 0.4 µg/mL (≈ 1.27 µM) | EC50 (Monilinia laxa [41]): 0.1 µg/mL (≈ 0.317 µM) | EC50 (Monilinia laxa [3]): 0.1 µg/mL (≈ 0.317 µM) | EC50 (Monilinia laxa [4]): 0.1 µg/mL (≈ 0.317 µM)
